Results reported in patent publication US6914045B2, “Glycopeptide antibiotics” (Wyeth Holdings Corporation, priority 2001, dated 2005).
In brackets after ≈: the same amount, converted by molar mass.

Assays:
Assay in all cases: in vitro antibacterial evaluation, MIC by broth dilution
Assay type in all cases: cell-based
[1] = tested on: Streptococcus sp.; settings: broth dilution, 18 hours at 35° C.; for MIC Streptococcus pneumoniae (ATCC 6301): strain ATCC 6301; for MIC Streptococcus pneumoniae (GC 1894): strain GC 1894; for MIC Streptococcus pyogenes (GC 4563): strain GC 4563; for MIC Streptococcus agalactiae (GC 4564): strain GC 4564; for MIC Streptococcus pneumoniae (GC 4565): strain GC 4565
Protocol: (§1) Methods for in vitro Antibacterial Evaluation (Table 1)
(§2) The minimum inhibitory concentration (MIC), the lowest concentration of the antibiotic which inhibits growth of the test organism, is determined by the broth dilution method using Muller-Hinton II […] (Baltimore Biological Laboratories) following the recommendations of the National Committee for Clinical Laboratory Standards [Methods for dilution antimicrobial susceptibility tests for bacteria that grow aerobically, approved standard M7-A2, National Committee for Clinical Laboratory Standards, Villanova, Pa.].
(§3) An inoculum level of 5×10^5 CFU/mL, and a range of antibiotic concentrations (64-0.06 μg/mL) is used. […] The test organisms include a spectrum of Gram-positive bacteria comprised of Staphylococcus sp., Streptococcus sp. and Enterococcus sp. These organisms include recent clinical isolates that are resistant to methicillin, penicillin and/or vancomycin.

[2] = tested on: Staphylococcus sp.; settings: broth dilution, 18 hours at 35° C.; for MIC Staphylococcus aureus (ATCC 29213): strain ATCC 29213; for MIC Staphylococcus aureus (GC 1131): strain GC 1131; for MIC Staphylococcus aureus (GC 3051): strain GC 3051; for MIC Staphylococcus aureus (GC 3053): strain GC 3053; for MIC Staphylococcus aureus (GC 4541): strain GC 4541; for MIC Staphylococcus aureus (GC 4542): strain GC 4542; for MIC Staphylococcus aureus-SMITH (GC 4543): strain GC 4543; for MIC Staphylococcus aureus (GC 4544): strain GC 4544; for MIC Staphylococcus aureus (GC 4545): strain GC 4545; for MIC Staphylococcus haemolyticus (GC 4546): strain GC 4546; for MIC Coagulase Negative Staphylococcus (GC 4547): strain GC 4547; for MIC Coagulase Negative Staphylococcus (GC 4548): strain GC 4548; for MIC Coagulase Negative Staphylococcus (GC 4549): strain GC 4549; for MIC Coagulase Negative Staphylococcus (GC 4551): strain GC 4551; for MIC Coagulase Negative Staphylococcus (GC 6257): strain GC 6257
Protocol: as §1, §2, §3

[3] = tested on: Enterococcus sp.; settings: broth dilution, 18 hours at 35° C.; for MIC Enterococcus faecalis (ATCC 29212): strain ATCC 29212; for MIC Enterococcus faecalis (GC 2242): strain GC 2242; for MIC Enterococcus faecium (GC 2243): strain GC 2243; for MIC Enterococcus faecalis (GC 2691): strain GC 2691; for MIC Enterococcus faecalis (GC 3059): strain GC 3059; for MIC Enterococcus faecalis (GC 4552): strain GC 4552; for MIC Enterococcus faecalis (GC 4553): strain GC 4553; for MIC Enterococcus faecalis (GC 4554): strain GC 4554; for MIC Enterococcus faecium (GC 4556): strain GC 4556; for MIC Enterococcus faecium (GC 4557): strain GC 4557; for MIC Enterococcus avium (GC 4558): strain GC 4558; for MIC Enterococcus faecalis (GC 6189): strain GC 6189
Protocol: as §1, §2, §3

[4] = tested on: Escherichia coli; settings: broth dilution, 18 hours at 35° C.; for MIC Escherichia coli (ATCC 25922): strain ATCC 25922; for MIC Escherichia coli (GC 4559): strain GC 4559; for MIC Escherichia coli (GC 4560): strain GC 4560
How it was run: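 Broth dilution in Muller-Hinton II medium per NCCLS standard M7-A2, with an inoculum of 5×10^5 CFU/mL and antibiotic tested over 64-0.06 μg/mL. MIC was taken as the lowest concentration inhibiting visible growth.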

Row | Compound | MIC Streptococcus pneumoniae (ATCC 6301) [1] | MIC Streptococcus pneumoniae (GC 1894) [1] | MIC Streptococcus pyogenes (GC 4563) [1] | MIC Streptococcus agalactiae (GC 4564) [1] | MIC Streptococcus pneumoniae (GC 4565) [1] | MIC Staphylococcus aureus (ATCC 29213) [2] | MIC Staphylococcus aureus (GC 1131) [2] | MIC Staphylococcus aureus (GC 3051) [2] | MIC Staphylococcus aureus (GC 3053) [2] | MIC Staphylococcus aureus (GC 4541) [2] | MIC Staphylococcus aureus (GC 4542) [2] | MIC Staphylococcus aureus-SMITH (GC 4543) [2] | MIC Staphylococcus aureus (GC 4544) [2] | MIC Staphylococcus aureus (GC 4545) [2] | MIC Staphylococcus haemolyticus (GC 4546) [2] | MIC Coagulase Negative Staphylococcus (GC 4547) [2] | MIC Coagulase Negative Staphylococcus (GC 4548) [2] | MIC Coagulase Negative Staphylococcus (GC 4549) [2] | MIC Coagulase Negative Staphylococcus (GC 4551) [2] | MIC Enterococcus faecalis (ATCC 29212) [3] | further results
1 | CC(c1ccccc1)C1NC(=O)CNC(=O)C(CO)NC(=O)C(CC2CNC(=N)N2C2OC(CO)C(O)C(O)C2O)NC(=O)C(CC2CNC(=N)N2)NC(=O)C(Cc2ccc3oc(-c4ccc5c(c4)Cc4ccccc4-5)nc3c2)NC1=O (stereo not drawn) [Example 42, Cyclo[3-[2-(9H-fluoren-2-yl)-1,3-benzoxazol-5-yl]alanyl-3-(2-iminoimidazolidin-4-yl)alanyl-3-(3-hexopyranosyl-2-iminoimidazolidin-4-yl)alanylserylglycyl-β-methylphenylalanyl]] | 8 µg/mL (≈ 7.09 µM) | 16 µg/mL (≈ 14.2 µM) | 4 µg/mL (≈ 3.55 µM) | 8 µg/mL (≈ 7.09 µM) | 16 µg/mL (≈ 14.2 µM) | 4 µg/mL (≈ 3.55 µM) | 2 µg/mL (≈ 1.77 µM) | 8 µg/mL (≈ 7.09 µM) | 4 µg/mL (≈ 3.55 µM) | 2 µg/mL (≈ 1.77 µM) | 2 µg/mL (≈ 1.77 µM) | 2 µg/mL (≈ 1.77 µM) | 2 µg/mL (≈ 1.77 µM) | 2 µg/mL (≈ 1.77 µM) | 2 µg/mL (≈ 1.77 µM) | 2 µg/mL (≈ 1.77 µM) | 1 µg/mL (≈ 0.886 µM) | 1 µg/mL (≈ 0.886 µM) | 4 µg/mL (≈ 3.55 µM) | 8 µg/mL (≈ 7.09 µM) | MIC Coagulase Negative Staphylococcus (GC 6257) [2]: 1 µg/mL (≈ 0.886 µM); MIC Enterococcus faecalis (GC 2242) [3]: 8 µg/mL (≈ 7.09 µM); MIC Enterococcus faecium (GC 2243) [3]: 4 µg/mL (≈ 3.55 µM); MIC Enterococcus faecalis (GC 2691) [3]: 8 µg/mL (≈ 7.09 µM); MIC Enterococcus faecalis (GC 3059) [3]: 16 µg/mL (≈ 14.2 µM); MIC Enterococcus faecalis (GC 4552) [3]: 8 µg/mL (≈ 7.09 µM); MIC Enterococcus faecalis (GC 4553) [3]: 8 µg/mL (≈ 7.09 µM); MIC Enterococcus faecalis (GC 4554) [3]: 8 µg/mL (≈ 7.09 µM); MIC Enterococcus faecium (GC 4556) [3]: 16 µg/mL (≈ 14.2 µM); MIC Enterococcus faecium (GC 4557) [3]: 2 µg/mL (≈ 1.77 µM); MIC Enterococcus avium (GC 4558) [3]: 4 µg/mL (≈ 3.55 µM); MIC Enterococcus faecalis (GC 6189) [3]: 8 µg/mL (≈ 7.09 µM); MIC Escherichia coli (ATCC 25922) [4]: 32 µg/mL (≈ 28.4 µM); MIC Escherichia coli (GC 4559) [4]: 32 µg/mL (≈ 28.4 µM); MIC Escherichia coli (GC 4560) [4]: 1 µg/mL (≈ 0.886 µM)
2 | CC(c1ccccc1)C1NC(=O)CNC(=O)C(CO)NC(=O)C(C(O)C2CNC(=N)N2C2OC(CO)C(O)C(O)C2O)NC(=O)C(C(O)C2CNC(=N)N2)NC(=O)C(Cc2ccc3oc(SCc4ccccc4)nc3c2)NC1=O (stereo not drawn) [Example 45, Cyclo[3-[2-(benzylthio)-1,3-benzoxazol-5-yl]alanyl-3-(2-iminoimidazolidin-4-yl)seryl-3-(3-hexopyranosyl-2-iminoimidazolidin-4-yl)serylserylglycyl-β-methylphenylalanyl]] | 16 µg/mL (≈ 14.3 µM) | 16 µg/mL (≈ 14.3 µM) | 4 µg/mL (≈ 3.58 µM) | 16 µg/mL (≈ 14.3 µM) | 32 µg/mL (≈ 28.6 µM) | 8 µg/mL (≈ 7.15 µM) | 8 µg/mL (≈ 7.15 µM) | 8 µg/mL (≈ 7.15 µM) | 8 µg/mL (≈ 7.15 µM) | 16 µg/mL (≈ 14.3 µM) | 8 µg/mL (≈ 7.15 µM) | 8 µg/mL (≈ 7.15 µM) | 8 µg/mL (≈ 7.15 µM) | 8 µg/mL (≈ 7.15 µM) | 4 µg/mL (≈ 3.58 µM) | 4 µg/mL (≈ 3.58 µM) | 8 µg/mL (≈ 7.15 µM) | 4 µg/mL (≈ 3.58 µM) | 8 µg/mL (≈ 7.15 µM) | 32 µg/mL (≈ 28.6 µM) | MIC Coagulase Negative Staphylococcus (GC 6257) [2]: 4 µg/mL (≈ 3.58 µM); MIC Enterococcus faecalis (GC 2242) [3]: 16 µg/mL (≈ 14.3 µM); MIC Enterococcus faecium (GC 2243) [3]: 16 µg/mL (≈ 14.3 µM); MIC Enterococcus faecalis (GC 2691) [3]: 32 µg/mL (≈ 28.6 µM); MIC Enterococcus faecalis (GC 3059) [3]: 32 µg/mL (≈ 28.6 µM); MIC Enterococcus faecalis (GC 4552) [3]: 16 µg/mL (≈ 14.3 µM); MIC Enterococcus faecalis (GC 4553) [3]: 16 µg/mL (≈ 14.3 µM); MIC Enterococcus faecalis (GC 4554) [3]: 16 µg/mL (≈ 14.3 µM); MIC Enterococcus faecium (GC 4556) [3]: 32 µg/mL (≈ 28.6 µM); MIC Enterococcus faecium (GC 4557) [3]: 4 µg/mL (≈ 3.58 µM); MIC Enterococcus avium (GC 4558) [3]: 8 µg/mL (≈ 7.15 µM); MIC Enterococcus faecalis (GC 6189) [3]: 16 µg/mL (≈ 14.3 µM); MIC Escherichia coli (ATCC 25922) [4]: 16 µg/mL (≈ 14.3 µM); MIC Escherichia coli (GC 4559) [4]: 16 µg/mL (≈ 14.3 µM); MIC Escherichia coli (GC 4560) [4]: 4 µg/mL (≈ 3.58 µM)
3 | CC(c1ccccc1)C1NC(=O)CNC(=O)C(CO)NC(=O)C(C(O)C2CNC(=N)N2C2OC(CO)C(O)C(O)C2O)NC(=O)C(C(O)C2CNC(=N)N2)NC(=O)C(Cc2ccc3oc(SCc4ccc5ccccc5c4)nc3c2)NC1=O (centres unmarked) [Example 46] | 8 µg/mL (≈ 6.85 µM) | 8 µg/mL (≈ 6.85 µM) | 1 µg/mL (≈ 0.856 µM) | 8 µg/mL (≈ 6.85 µM) | 8 µg/mL (≈ 6.85 µM) | 8 µg/mL (≈ 6.85 µM) | 8 µg/mL (≈ 6.85 µM) | 8 µg/mL (≈ 6.85 µM) | 8 µg/mL (≈ 6.85 µM) | 8 µg/mL (≈ 6.85 µM) | 8 µg/mL (≈ 6.85 µM) | 4 µg/mL (≈ 3.42 µM) | 8 µg/mL (≈ 6.85 µM) | 8 µg/mL (≈ 6.85 µM) | 8 µg/mL (≈ 6.85 µM) | 4 µg/mL (≈ 3.42 µM) | 8 µg/mL (≈ 6.85 µM) | 2 µg/mL (≈ 1.71 µM) | 4 µg/mL (≈ 3.42 µM) | 8 µg/mL (≈ 6.85 µM) | MIC Enterococcus faecalis (GC 2242) [3]: 8 µg/mL (≈ 6.85 µM); MIC Enterococcus faecium (GC 2243) [3]: 4 µg/mL (≈ 3.42 µM); MIC Enterococcus faecalis (GC 2691) [3]: 16 µg/mL (≈ 13.7 µM); MIC Enterococcus faecalis (GC 3059) [3]: 32 µg/mL (≈ 27.4 µM); MIC Enterococcus faecalis (GC 4552) [3]: 8 µg/mL (≈ 6.85 µM); MIC Enterococcus faecalis (GC 4553) [3]: 4 µg/mL (≈ 3.42 µM); MIC Enterococcus faecalis (GC 4554) [3]: 16 µg/mL (≈ 13.7 µM); MIC Enterococcus faecium (GC 4556) [3]: 16 µg/mL (≈ 13.7 µM); MIC Enterococcus faecium (GC 4557) [3]: 8 µg/mL (≈ 6.85 µM); MIC Enterococcus avium (GC 4558) [3]: 4 µg/mL (≈ 3.42 µM); MIC Enterococcus faecalis (GC 6189) [3]: 16 µg/mL (≈ 13.7 µM); MIC Escherichia coli (ATCC 25922) [4]: 64 µg/mL (≈ 54.8 µM); MIC Escherichia coli (GC 4559) [4]: 64 µg/mL (≈ 54.8 µM); MIC Escherichia coli (GC 4560) [4]: 16 µg/mL (≈ 13.7 µM)
